From patent publication US20230242496A1, “SOX11 INHIBITORS FOR TREATING MANTLE CELL LYMPHOMA” (Icahn School of Medicine At Mount Sinai, priority 2020, published 2023) come the findings set out here.

What is called Kd is the free concentration of one partner at which half of the binding sites on the other are occupied at equilibrium, for simple one-to-one binding. Usually IC50 stands for the point on the concentration scale where inhibition reaches its midpoint. Read a low IC50 as greater potency in that assay. A word on the viability: it is a read-out of living cells in per cent, often relative to untreated cells.

Structures are written as SMILES. Bounds are passed on as bounds.

The target in one data set is T1, (His)6-SOX11-DBD protein (Homo sapiens, UniProt P35716).
T1 construct: Recombinant (His)6-SOX11-DBD protein was immobilized
T1 sequence (P35716 49-117 limits assumed): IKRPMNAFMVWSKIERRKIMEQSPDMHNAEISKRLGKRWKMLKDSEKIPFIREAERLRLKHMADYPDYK
The experiment in a line: Surface Plasmon Resonance (SPR) assay. The settings on record: immobilized recombinant (His)6-SOX11-DBD, 25° C., compounds 5-40 μM, mean of three experiments. Format: binding. As to the method:
Surface Plasmon Resonance (SPR) Assay
Recombinant (His)6-SOX11-DBD protein was immobilized at a flow rate of 10 μl/min for 180 seconds to the right channel of a gold-coated SCR NiHC200M sensor chip (XanTec bioanalytics) placed in a Reichert 2SPR instrument (Reichert Technologies). The left channel, without immobilized protein, was used as a reference. […] Compounds flowed sequentially from the left to the right channel over the prepared sensor chip surface. 120 seconds association phase with each compound concentration was followed by 300 seconds dissociation phase with the assay buffer alone. The ka, kd, and KD values were determined from the sensograms for at least 3 concentrations of each compound by curve fitting the data using Reichert's TraceDrawer software. The mean KD value for each compound was calculated from three separate experiments.
As to `O=C(Nc1ccc(S(=O)(=O)Nc2ccccc2)cc1)c1ccc2nncn2c1`, the Kd is 367 µM.
In the case of `CN(c1ccccc1)S(=O)(=O)c1ccc(NC(=O)c2ccc(/C=C/C(=O)O)cc2)cc1`, the Kd came to 106 µM.
As to `CN1C(=O)CSc2ccc(C(=O)Nc3ccc(S(C)(=O)=O)c(Cl)c3)cc21`, the dissociation constant (Kd) amounted to 141 µM.
Take `O=C(Nc1cccc(OCc2ccccc2)c1)c1ccc2oc(=O)[nH]c2c1`: the Kd was found to be 12.4 µM.
Same read-out and setting: with `CN(Cc1cccc(NC(=O)c2ccc3oc(=O)[nH]c3c2)c1)c1ccccc1` the figure was 13.6 µM; with `CN(c1ccccc1)S(=O)(=O)c1ccc(NC(=O)c2ccc3c(c2)CCCS3)cc1Cl`, 10.2 µM.
For `Cc1cc(C(=O)Nc2ccc(OCc3ccccc3)cc2)nc(NCCN)n1`, the Kd is 122 µM.
For `Cc1cccc(N(C)S(=O)(=O)c2ccc(NC(=O)c3ccc4c(c3)CCCS4)cc2)c1`, the equilibrium dissociation constant (Kd) was 4.55 µM.
With `CN(c1ccccc1)S(=O)(=O)c1ccc(NC(=O)c2ccc3c(c2)CCCS3)cc1C(F)(F)F`, the Kd was found to be 5.62 µM.
In the case of `Cc1cc(C(=O)Nc2ccc(S(=O)(=O)Nc3ccccc3)cc2)nc(NC2CCC(N)CC2)n1` (centres unmarked), the Kd is 94.6 µM.
As to `CC1Sc2ccc(C(=O)Nc3cccc(OCc4cccc(OS(=O)(=O)F)c4)c3)cc2NC1=O` (centres unmarked), the Kd worked out at 16.9 µM.
Regarding `CC(=O)NCc1cccc(Nc2nc(Nc3cccc(S(=O)(=O)N4CCCC4)c3)ncc2C)c1`, the dissociation constant Kd came out at 163 µM.
With `O=C(Cc1ccccc1[N+](=O)[O-])Nc1cccc(C(=O)Nc2ccc(CN3CCCC3)cc2)c1`, the equilibrium dissociation constant (Kd) was determined as 247 µM.
On the same count and under the same terms, then `O=C1COc2ccc(C(=O)Nc3ccc(CNc4ccccc4)cc3)cc2N1`, with 5.28 µM; and `FC(F)(F)c1cc(OCc2ccccc2)ccc1CNc1ccc2cncnc2c1`, with 5.28 µM; and `CC(=O)NCCNc1nc(C)cc(C(=O)Nc2ccc(S(=O)(=O)Nc3ccccc3)cc2)n1`, with 89.6 µM.
Regarding `c1ccc(OCc2ccc(CNc3ccc4cncnc4c3)cc2)cc1`, the Kd was found to be 12 µM.
With `CN(c1cccc(Cl)c1)S(=O)(=O)c1ccc(NC(=O)c2ccc3c(c2)CCCS3)cc1`, the Kd worked out at 14.2 µM.
On the same count and under the same terms, with `Cc1cc(Nc2cc(C(=O)Nc3ccc(S(=O)(=O)Nc4ccccc4)cc3)ccc2C)nc(N)n1` the figure was 80.7 µM; with `CN(Cc1ccc(NC(=O)c2ccc3nn[nH]c3c2)cc1)c1ccccc1`, 2.9 µM.
For the compound `CN(c1ccc(Cl)cc1)S(=O)(=O)c1ccc(NC(=O)c2ccc3c(c2)CCCS3)cc1`, the Kd was 10.8 µM.
In the case of `Cc1ccc(C(=O)Nc2ccc(S(=O)(=O)Nc3ccccc3)cc2)cc1NC(=O)Cc1cc(=O)[nH]c(=O)[nH]1`, the dissociation constant (Kd) came to 61.9 µM.
Turning to `CN(Cc1cccc(NC(=O)c2ccc3snnc3c2)c1)c1ccccc1`, the Kd was 38.8 µM.
Turning to `Cc1cnc(Nc2cccc(S(=O)(=O)N3CCCC3)c2)nc1Nc1cccc(N)c1`, the dissociation constant (Kd) was 105 µM.
For `CC(=O)N1CCN(S(=O)(=O)c2ccc(NC(=O)c3ccc4c(c3)CCCS4)cc2)CC1`, the Kd came out at 24.1 µM.
Turning to `O=C(Nc1ccc(S(=O)(=O)N2CCCCC2)cc1)c1ccc2c(c1)N(Cc1ccccc1)C(=O)CS2`, the dissociation constant (Kd) was 15.7 µM.
`O=C(Nc1cccc(CN2CCCCC2)c1)c1ccc2c(c1)CCCS2`: the Kd came to 24 µM.
On to `CCN(c1ccccc1)S(=O)(=O)c1ccc(NC(=O)c2ccc3c(c2)CCCS3)cc1`, for which the Kd was 130 µM.
On to `CN(Cc1ccc(NC(=O)c2ccc3c(c2)NC(=O)CS3)cc1)c1ccccc1`, for which the dissociation constant (Kd) turned out to be 24.8 µM.
Regarding `CN1C(=O)CSc2ccc(C(=O)Nc3ccc(CN4CCCCC4)cc3)cc21`, the dissociation constant Kd came out at 129 µM.
Turning to `CN(Cc1ccccc1)c1ccc(CNc2ccc3cncnc3c2)cc1`, the Kd amounted to 20.7 µM.
Consider `CC1Sc2ccc(C(=O)Nc3cccc(S(=O)(=O)F)c3)cc2NC1=O` (centres unmarked), for which the Kd came to 35.5 µM.
Take `Clc1ccccc1COc1ccc(CNc2ccc3cncnc3c2)cc1`: the Kd came to 7.88 µM.
For the compound `O=C(Nc1ccc(CNc2ccccc2)cc1)c1ccc2oc(=O)[nH]c2c1`, the dissociation constant (Kd) is 7.91 µM.
With `CN(c1ccccc1)S(=O)(=O)c1ccc(NC(=O)c2ccc3c(c2)CCCS3)cc1`, the Kd is 21.7 µM.
Take `CN(c1ccccc1Cl)S(=O)(=O)c1ccc(NC(=O)c2ccc3c(c2)CCCS3)cc1`: the Kd was 2.39 µM.
Turning to `Cc1cccc(COc2ccc(CNc3ccc4cncnc4c3)cc2)c1`, the Kd was 7.63 µM.
Turning to `CN(Cc1cccc(NC(=O)c2ccc3c(c2)CCCS3)c1)c1ccccc1`, the Kd is 37.5 µM.
On to `CCN1C(=O)CSc2ccc(C(=O)Nc3ccc(S(=O)(=O)N4CCCCC4)cc3)cc21`, for which the Kd was found to be 7.52 µM.
Take `Cc1ccc(N(C)S(=O)(=O)c2ccc(NC(=O)c3ccc4c(c3)CCCS4)cc2)cc1`: the Kd came out at 2.73 µM.
Same read-out and setting: then `c1ncc2ccc(NCc3ccc(OCC4CCOCC4)cc3)cc2n1`, with 24.4 µM.
Turning to `CC(=O)N1CCN(S(=O)(=O)c2cccc(NC(=O)c3ccc4c(c3)CCCS4)c2)CC1`, the Kd was 15.4 µM.
`CN(Cc1ccc(NC(=O)c2ccc3c(c2)N(C)C(=O)CS3)cc1)c1ccccc1`: the equilibrium dissociation constant (Kd) is 8.1 µM.
With `CC1Sc2ccc(C(=O)Nc3cccc(CNc4cccc(OS(=O)(=O)F)c4)c3)cc2NC1=O` (centres unmarked), the Kd turned out to be 11.2 µM.
Same read-out and setting: then `CN1C(=O)COc2ccc(C(=O)Nc3ccc(S(=O)(=O)N4CCCCCC4)cc3)cc21`, with 4.94 µM; and `CC(C)N1C(=O)CSc2ccc(C(=O)Nc3ccc(S(=O)(=O)N4CCCCC4)cc3)cc21`, with 6.37 µM.
Same read-out and setting: with `CN(Cc1ccc(NC(=O)c2ccc3oc(=O)[nH]c3c2)cc1)c1ccccc1` the figure was 15.6 µM.
For the compound `Cc1cc(OCc2ccccc2)ccc1CNc1ccc2cncnc2c1`, the Kd came to 9.24 µM.

Another data set deals with Jeko-1 (SOX11+). Put plainly: Cell viability assay (CellTiter-Blue resazurin reduction). The settings on record: Homo sapiens, JeKo-1, 72 h, JeKo-1 cells, 0-40 μM. Type of data set: cell-based. As to the method:
Cell viability was determined by a fluorometric resazurin reduction method (CellTiter-Blue; Promega, Madison, Wis.) following the manufacturer's instructions. […] Cells were incubated for 72 hours. After incubation, 20 μl CellTiter-Blue Cell was added to each well and incubated for another 2 hours. […] The number of viable cells in each treated well was calculated, based on the linear least squares regression of the standard curve (OD vs. cell concentration). The viability of cells treated with compounds was normalized to the viability of cells treated with 0.2% Dimethyl sulfoxide (DMSO). Cell counts were confirmed with Trypan Blue Exclusion Assay on the Countess automated cell counter (Invitrogen) according to the manufacturer's specifications. The average and mean standard deviation were calculated from three separate experiments. IC50 values were calculated using the GraphPad Prism (version 4.00) based on a sigmoidal dose-response equation.
(In general: Resazurin is reduced to fluorescent resorufin, in cell work by metabolically active cells.)
`CC1Sc2ccc(C(=O)Nc3ccc(S(=O)(=O)Nc4ccccc4)cc3)cc2NC1=O` (centres unmarked) [drawing 599]: the 50% inhibitory concentration (IC50) is 12.5 µM.
The same measure, in the same setting: then `C[C@H]1Sc2ccc(C(=O)Nc3ccc(S(=O)(=O)Nc4ccccc4)cc3)cc2NC1=O`, with 12.5 µM.
As to `CC1Sc2ccc(C(=O)Nc3cccc(S(=O)(=O)Nc4cccc(C(F)(F)F)c4)c3)cc2NC1=O` (centres unmarked), the 50% inhibitory concentration (IC50) is 10 µM.
With `O=C(Nc1ccc(S(=O)(=O)Nc2ccccc2)cc1)c1ccc2nn[nH]c2c1`, it took 12 µM to reach half-maximal inhibition (IC50).
On the same count and under the same terms, then `CC1Sc2ccc(C(=O)Nc3ccc(S(=O)(=O)Nc4ccccc4F)cc3)cc2NC1=O` (centres unmarked), with 15 µM.
As to `Cc1cc(S(=O)(=O)Nc2ccccc2)ccc1NC(=O)c1ccc2c(c1)NC(=O)C(C)S2` (centres unmarked), half-maximal inhibition (IC50) required 20 µM. The IC50 values of the last two compounds are within 1.5-fold of each other.
Compound `CC1Sc2ccc(C(=O)Nc3ccc(S(=O)(=O)Nc4ccccc4)cc3C(F)(F)F)cc2NC1=O` (centres unmarked) displayed an IC50 of 5 µM.

Staying with this data set, now noted: Homo sapiens, JeKo-1, 72 h, JeKo-1 cells, 20 μM compound, normalized to 0.2% DMSO.
As to `CC1Sc2ccc(C(=O)Nc3cccc(S(=O)(=O)Nc4cccc(C(F)(F)F)c4)c3)cc2NC1=O` (centres unmarked), the viability at 20 µM came to 16.8%.
For `O=C(Nc1ccc(S(=O)(=O)Nc2ccccc2)cc1)c1ccc2nn[nH]c2c1`, the viability at 20 µM was found to be 5.75%.
Turning to `CC1Sc2ccc(C(=O)Nc3cccc(OCc4ccccc4C(F)(F)F)c3)cc2NC1=O` (centres unmarked), the viability at 20 µM came to 87.1%.
Still for that read-out and setting: then `CC1Sc2ccc(C(=O)Nc3ccc(OCc4ccccc4C(F)(F)F)cc3)cc2NC1=O` (centres unmarked), with 106%; and `CC1Sc2ccc(C(=O)Nc3ccc(S(=O)(=O)Nc4ccccc4F)cc3)cc2NC1=O` (centres unmarked), with 21.2%; and `Cc1cc(S(=O)(=O)Nc2ccccc2)ccc1NC(=O)c1ccc2c(c1)NC(=O)C(C)S2` (centres unmarked), with 51.1%.
For `CC1Sc2ccc(C(=O)Nc3ccc(OCc4ccccc4)cc3)cc2NC1=O` (centres unmarked), the viability at 20 µM was found to be 104%.
For `CC1Sc2ccc(C(=O)Nc3ccc(S(=O)(=O)Nc4ccccc4)cc3C(F)(F)F)cc2NC1=O` (centres unmarked), the viability at 20 µM was found to be 1.38%.

The data set is the same for the next values; noted with them: JeKo-1 cells, 20 μM compound, 72 hours, normalized to 0.2% DMSO; 20 µM.
As to `CC1Sc2ccc(C(=O)Nc3ccc(S(=O)(=O)Nc4ccccc4)cc3)cc2NC1=O` (centres unmarked) [drawing 599], the “Jeko-1 Viability at 20 μM (%)” value was found to be 6.36%.
Consider `O=C1CSc2ccc(C(=O)Nc3ccc(S(=O)(=O)Nc4ccccc4)cc3)cc2N1` [drawing 503], for which the “Jeko-1 Viability at 20 μM (%)” value is reported as 2.73%.
With `O=C1CSc2ccc(C(=O)Nc3ccc(S(=O)(=O)Nc4ccccc4)cc3)cc2N1` [drawing 513], the “Jeko-1 Viability at 20 μM (%)” value was 79.21%.

The data set is the same for the next values; noted with them: JeKo-1 cells, 72 hours, 0-40 μM.
Regarding `O=C1CSc2ccc(C(=O)Nc3ccc(S(=O)(=O)Nc4ccccc4)cc3)cc2N1` [drawing 503], the IC50 was 7.5 µM.
The compound `O=C1CSc2ccc(C(=O)Nc3ccc(S(=O)(=O)Nc4ccccc4)cc3)cc2N1` [drawing 513] displayed a half-inhibitory concentration (IC50) of more than 20 µM.
